Experimental data published in patent US6620828B2, “Thiazole compounds and pharmaceutical compositions for inhibiting protein kinases and methods for their use” (Agouron Pharmaceuticals, Inc., priority 1999, dated 2003).
“And” between values parts separate entries of the source, which are not always exact repeats. Identical values can stand only once. Counter-ions that a name gives are not always drawn.

Key:
[1] = target: T1, CHK1 (Homo sapiens, UniProt O14757); test: CHK1 high-throughput screening; assay type: biochemical; details: for inhibition at 20 µM: read-out: % inhibition @ 20 μM, Table 4, repeated entries per example
T1 sequence (O14757 1-476): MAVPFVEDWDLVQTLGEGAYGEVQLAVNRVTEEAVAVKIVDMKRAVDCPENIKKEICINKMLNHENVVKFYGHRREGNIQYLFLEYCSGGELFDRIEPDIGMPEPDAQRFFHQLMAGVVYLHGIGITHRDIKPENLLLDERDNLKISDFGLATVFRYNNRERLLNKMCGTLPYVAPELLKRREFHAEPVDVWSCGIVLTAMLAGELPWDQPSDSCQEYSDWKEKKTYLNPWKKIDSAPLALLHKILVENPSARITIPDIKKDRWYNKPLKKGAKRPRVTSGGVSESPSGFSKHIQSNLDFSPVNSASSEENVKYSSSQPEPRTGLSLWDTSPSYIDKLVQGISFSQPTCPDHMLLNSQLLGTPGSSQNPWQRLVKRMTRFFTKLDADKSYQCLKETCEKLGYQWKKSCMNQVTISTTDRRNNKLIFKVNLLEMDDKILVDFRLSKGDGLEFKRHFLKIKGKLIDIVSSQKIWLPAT

[2] = target: T2, FAKcd409 (Homo sapiens, UniProt Q05397, P410T); test: FAK HTS assay; assay type: biochemical; details: 10 uM compound, HTS Delphia assay; for % inhibition of FAK: 10 µM
T2 construct: comprises residues methionine 409 to glutamate 689; made in house; host or cells: baculovirus vector expression system

[3] = target: T3, CDK4/Cyclin D3 complex (Homo sapiens, UniProt P11802); test: CDK4/Cyclin D assay; assay type: biochemical; details: Table 2
T3 construct: made in house; host or cells: insect cells co-infected with baculovirus vectors
Summary of the method: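 Insect-cell-expressed CDK4/cyclin D3 (50 nM) phosphorylating His-tagged Rb fragment (residues 386-928) with 25 μM [^32P]ATP in HEPES pH 7.4, MgCl2, 2% DMSO; 20 min at 30 °C, EDTA stop. Filter-captured 32P by phosphorimager; apparent Ki from competitive or tight-binding inhibition fits.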

[4] = target: CDK2/Cyclin A complex (Homo sapiens, UniProt P24941); test: CDK2/Cyclin A assay; assay type: biochemical; details: Table 2
Summary of the method: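 Radiometric assay: 150 nM CDK2/cyclin A (insect-cell CDK2, truncated cyclin A) phosphorylates His-tagged Rb fragment (residues 386-928) with 25 μM ATP plus [32P]ATP, pH 7.4 HEPES, 2% DMSO, 30 °C for 20 min. Filter-captured product counted by phosphorimager; apparent Ki from competitive or tight-binding inhibition fits.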

[5] = target: T4, LCK tyrosine kinase (Homo sapiens, UniProt P06239, C224D/P223M); test: LCK spectrophotometric assay; assay type: biochemical; details: Table 3, read-out: LCK (% inh @ 1 uM)
T4 construct: starting from amino acid residue 223 to the end of the protein at residue 509; made in house; host or cells: insect cells

[6] = target: T5, FGF-R1 (Homo sapiens, UniProt P11362, C488A/C584S/L457V); test: FGF-R spectrophotometric assay; assay type: biochemical; details: Table 3; % inh @ 1 uM; read-out: FGF-P Ki (nM) (% inh @ 1 uM)
T5 construct: starting from the endogenous methionine residue 456 to glutamate 766; made in house; host or cells: baculovirus vector expression system
Experimental: FGF-R1 Construct for Assay: The intracellular kinase domain of human FGF-R1 was expressed using the baculovirus vector expression system starting from the endogenous methionine residue 456 to glutamate 766, according to the residue numbering system of Mohammadi et al., Mol. Cell. Biol., 16, 977-989 (1996). In addition, the construct also has the following 3 amino acid substitutions: L457V, C488A, and C584S.
The spectrophotometric assay was carried out as described above for VEGF-R2, except for the following changes in concentration: FGF-R=50 nM, ATP=2 mM, and poly(E4Y1)=15 mM.

[7] = target: T6, unphosphorylated VEGF-R2Δ50 (FLVK) (Homo sapiens, UniProt P35968, DEL940-989/E990V); test: VEGF-R2 coupled spectrophotometric assay, unphosphorylated enzyme (FLVK); assay type: biochemical; details: Table 3; some entries 'Slow binder'
T6 construct: VEGF-R2Δ50 contains residues 806-939 and 990-1171; made in house; host or cells: baculovirus/insect cells
Summary of the method: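 Unphosphorylated VEGF-R2Δ50 (5 to 40 nM) with 20 mM poly(E4Y1), 3 mM ATP, 60 mM MgCl2, 2 mM MnCl2 in 200 mM Hepes pH 7.5. ADP production coupled via PK/LDH to NADH oxidation, read at 340 nm. Ki from activity at varying compound concentrations.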

[8] = tested on: human umbilical vein endothelial cells (HUVEC); test: HUVEC proliferation assay; assay type: cell-based; details: Homo sapiens, HUVEC, Table 3
Summary of the method: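 Exponentially growing HUVEC were serum-starved 24 h (F12K + 1% FBS), pre-treated 1 h with compound (0.1% DMSO final), then stimulated with 6 ng/ml VEGF. Proliferation was read 72 h later by MTT reduction (A595). IC50 came from seven 0.5-log concentrations in triplicate; screens gave % inhibition relative to VEGF-only and starved wells.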

[9] = target: T7, phosphorylated VEGF-R2Δ50 (FLVK-P) (Homo sapiens, UniProt P35968, DEL940-989/E990V); test: VEGF-R2 coupled spectrophotometric (FLVK-P) assay; assay type: biochemical; details: Table 3; at 50 nM
T7 construct: VEGF-R2Δ50 contains residues 806-939 and 990-1171; made in house; host or cells: baculovirus/insect cells
Summary of the method: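 Baculovirus-expressed human VEGF-R2Δ50 (residues 806-939/990-1171, E990V) was autophosphorylated with 3 mM ATP, 40 mM MgCl2 for 2 h at 4° C. ADP formation was coupled via PK/LDH to NADH oxidation, read at 340 nm, with 5.1 mM poly(E4Y1), 1 mM ATP, 25 mM MgCl2, Hepes pH 7.5. Ki came from activity across compound concentrations.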

[10] = tested on: lung cancer cells (line MV522); test: Cancer cell proliferation (MV522) assay; assay type: cell-based; details: MV522, Table 3

T2 sequence (Q05397 409-689 P410T): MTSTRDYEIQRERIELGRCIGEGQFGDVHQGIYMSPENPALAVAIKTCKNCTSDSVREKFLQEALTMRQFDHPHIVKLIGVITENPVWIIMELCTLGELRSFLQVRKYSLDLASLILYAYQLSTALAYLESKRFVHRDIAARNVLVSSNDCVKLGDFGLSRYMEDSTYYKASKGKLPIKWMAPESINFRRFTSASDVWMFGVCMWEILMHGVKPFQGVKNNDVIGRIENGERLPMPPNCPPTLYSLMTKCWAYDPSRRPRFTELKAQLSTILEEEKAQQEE
T5 sequence (P11362 456-766 L457V/C488A/C584S): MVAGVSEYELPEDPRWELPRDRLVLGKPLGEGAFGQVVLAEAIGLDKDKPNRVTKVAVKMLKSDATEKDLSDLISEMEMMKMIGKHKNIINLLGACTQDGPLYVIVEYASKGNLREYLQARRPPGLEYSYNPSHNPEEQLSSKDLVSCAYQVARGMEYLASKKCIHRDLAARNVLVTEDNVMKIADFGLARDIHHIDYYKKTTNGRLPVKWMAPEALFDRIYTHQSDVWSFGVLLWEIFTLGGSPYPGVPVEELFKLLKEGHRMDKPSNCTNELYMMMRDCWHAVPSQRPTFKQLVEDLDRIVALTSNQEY
T6 sequence (P35968 with tags, fused parts or gaps DEL940-989/E990V limits assumed): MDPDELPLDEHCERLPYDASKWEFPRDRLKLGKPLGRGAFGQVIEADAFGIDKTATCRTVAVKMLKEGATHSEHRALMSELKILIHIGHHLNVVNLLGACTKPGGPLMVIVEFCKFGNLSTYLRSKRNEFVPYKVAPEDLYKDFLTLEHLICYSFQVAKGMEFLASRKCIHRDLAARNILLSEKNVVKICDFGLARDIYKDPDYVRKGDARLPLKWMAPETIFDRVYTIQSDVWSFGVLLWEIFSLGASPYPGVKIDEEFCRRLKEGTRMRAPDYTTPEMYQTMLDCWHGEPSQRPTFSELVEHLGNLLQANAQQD
T4 sequence (P06239 223-509 P223M/C224D): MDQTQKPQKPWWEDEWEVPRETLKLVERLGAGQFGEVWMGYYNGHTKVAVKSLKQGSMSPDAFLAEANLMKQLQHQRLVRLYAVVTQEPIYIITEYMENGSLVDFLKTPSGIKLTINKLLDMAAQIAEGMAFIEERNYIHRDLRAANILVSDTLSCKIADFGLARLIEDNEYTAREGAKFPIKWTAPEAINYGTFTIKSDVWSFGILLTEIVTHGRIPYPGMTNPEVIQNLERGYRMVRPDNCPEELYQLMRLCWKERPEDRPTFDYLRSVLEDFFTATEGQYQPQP
T7 sequence (P35968 with tags, fused parts or gaps DEL940-989/E990V limits assumed): as the sequence (P35968 with tags, fused parts or gaps DEL940-989/E990V limits assumed) above
T3 sequence (P11802 whole entry): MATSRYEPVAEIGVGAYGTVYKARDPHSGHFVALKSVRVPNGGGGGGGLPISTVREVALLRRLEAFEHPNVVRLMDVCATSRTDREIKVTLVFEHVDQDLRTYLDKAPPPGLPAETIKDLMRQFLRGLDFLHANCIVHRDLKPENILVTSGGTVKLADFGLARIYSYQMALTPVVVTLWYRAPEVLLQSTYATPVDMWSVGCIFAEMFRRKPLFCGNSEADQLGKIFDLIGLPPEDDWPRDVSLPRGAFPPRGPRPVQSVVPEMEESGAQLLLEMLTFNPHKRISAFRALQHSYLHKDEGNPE
T3 sequence (P30281 whole entry partner): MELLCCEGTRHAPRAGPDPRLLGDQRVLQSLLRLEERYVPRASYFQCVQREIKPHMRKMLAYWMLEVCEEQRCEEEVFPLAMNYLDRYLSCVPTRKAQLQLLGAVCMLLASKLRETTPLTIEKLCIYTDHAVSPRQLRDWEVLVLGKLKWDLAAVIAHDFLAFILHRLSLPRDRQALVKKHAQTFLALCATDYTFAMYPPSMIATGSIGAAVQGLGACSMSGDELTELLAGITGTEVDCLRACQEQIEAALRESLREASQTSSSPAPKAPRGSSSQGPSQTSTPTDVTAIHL

% inhibition @ 20 μM ([1]; Table 4, repeated entries per example, 20 µM) | % inhibition of FAK [2] | inhibition at 20 µM [1] [%] | inhibition at 10 µM [2] [%] | Ki [3] [nM] | Ki [4] [nM] | inhibition at 1 µM [5] [%] | inhibition at 1 µM [6] [%] | Ki [7] [nM] | inhibition at 0.05 µM [9] [%] | IC50 [10] [nM] | Structure (SMILES) | IC50 [8] [nM]
4.6% and −3.4% | −3% and −8% and −13% | – | – | – | – | – | – | – | – | – | COc1cc(Nc2nc(N)c(-c3nc(-c4cccc(C(=O)Nc5ccc(C(C)C)c(C)c5)c4)cs3)s2)cc(OC)c1OC [A(34), 3-[4′-Amino-2′-(3,4,5-trimethoxy-phenylamino)-[2,5′]bithiazolyl-4-yl]-N-(4-isopropyl-3-methyl-phenyl)-benzamide] | –
– | – | 1 | -6 | – | – | – | – | – | – | – | CCOC(=O)c1cccc(Nc2nc(N)c(-c3nc(-c4cccc(NC(=O)c5ccccc5)c4)cs3)s2)c1 [A(40), 3-[4′-Amino-4-(3-benzoylaminophenyl)-[2,5′]bithiazolyl-2′-ylamino]-benzoic acid ethyl ester] | –
– | −15% and −5% and −10% | -7.1 | – | – | – | – | – | – | – | – | Cc1cccc(Nc2nc(N)c(-c3nc(-c4cccc(NC(=O)c5ccccc5)c4)cs3)s2)c1 [A(44), [3-(4′-Amino-2′-m-tolylamino-[2,5′]bithiazolyl-4-yl)-phenyl]-benzamide] | –
– | −13% and −7% and −10% | 14.1 | – | – | – | – | – | – | – | – | Nc1nc(Nc2ccc3c(=O)[nH][nH]c(=O)c3c2)sc1-c1nc(-c2cccc(NC(=O)c3ccccc3)c2)cs1 [A(49), N-{3-[4′-Amino-2′-(1,4-dioxo-1,2,3,4-tetrahydro-phthalazin-6-ylamino)-[2,5′]bithiazolyl-4-yl]-phenyl}-benzamide] | –
– | – | – | -18 | 4500 | 130 | – | – | – | – | – | CCOC(=O)c1csc(-c2sc(Nc3ccc(S(N)(=O)=O)cc3)nc2N)n1 [A(68), Ethyl 4′-amino-2′-(4-sulfamoyl-phenylamino)-[2,5′]bithiazolyl-4-carboxylate] | –
– | – | – | – | – | – | 10 | 46 | 0.76 | 13 | > 10000 | COc1cc(Nc2nc(N)c(-c3nc(-c4cc(NC(=O)OC(C)(C)C)c(F)cc4Cl)no3)s2)cc(OC)c1OC [B(14), (5-{5-[4-Amino-2-(3,4,5-trimethoxy-phenylamino)-thiazol-5-yl]-[1,2,4]oxadiazol-3-yl}-4-chloro-2-fluoro-phenyl)-carbamic acid tert-butyl ester] | 11
– | – | – | – | – | – | 29 | 23 | 1.4 | – | > 10000 | COc1cc(Nc2nc(N)c(-c3nc(-c4cccc(NC(=O)c5cc(C)c(O)c(C)c5)c4)cs3)s2)cc(OC)c1OC [D(58), N-{3-[4′-Amino-2′-(3,4,5-trimethoxy-phenylamino)-[2,5′]bithiazolyl-4-yl]-phenyl}-4-hydroxy-3,5-dimethyl-benzamide] | > 100
– | – | – | – | – | – | 44 | 54 | 2.8 | – | 3100 | COc1cc(Nc2nc(N)c(-c3nc(-c4cccc(NC(=O)CC5CC6CCC5C6)c4)cs3)s2)cc(OC)c1OC (stereo not drawn) [D(59), N-{3-[4′-Amino-2′-(3,4,5-trimethoxy-phenylamino)-[2,5′]bithiazolyl-4-yl]-phenyl}-2-bicyclo[2.2.1]hept-2-yl-acetamide] | > 100
– | – | – | – | – | – | 15 | 55 | 1 | – | > 10000 | COc1cc(Nc2nc(N)c(-c3nc(-c4cc(NC(=O)c5cccc(Cl)c5)c(F)cc4F)no3)s2)cc(OC)c1OC [D(66), N-(5-{5-[4-Amino-2-(3,4,5-trimethoxy-phenylamino)-thiazol-5-yl]-[1,2,4]oxadiazol-3-yl}-2,4-difluoro-phenyl)-3-chloro-benzamide] | 4.2
– | – | – | – | – | – | 79 | 78 | 0.5 | – | 2300 | COc1cc(Nc2nc(N)c(-c3nc(-c4cc(NC(=O)c5cccc(Cl)c5)c(F)cc4Cl)no3)s2)cc(OC)c1OC [D(69), N-(5-{5-[4-Amino-2-(3,4,5-trimethoxy-phenylamino)-thiazol-5-yl]-[1,2,4]oxadiazol-3-yl}-4-chloro-2-fluoro-phenyl)-3-chloro-benzamide] | 15
– | – | – | – | – | – | 61 | 59 | 3.5 | 91 | > 10000 | COc1cccc(C(=O)Nc2cc(-c3noc(-c4sc(Nc5cc(OC)c(OC)c(OC)c5)nc4N)n3)c(Cl)cc2F)c1 [D(70), N-(5-{5-[4-Amino-2-(3,4,5-trimethoxy-phenylamino)-thiazol-5-yl]-[1,2,4]oxadiazol-3-yl}-4-chloro-2-fluoro-phenyl)-3-methoxy-benzamide TFA salt] | 5.4
– | – | – | – | – | – | 35 | 49 | 0.9 | – | > 10000 | COc1cccc(C(=O)Nc2ccc(F)c(-c3noc(-c4sc(Nc5cc(OC)c(OC)c(OC)c5)nc4N)n3)c2)c1 [D(72), 3-[2-fluoro-5-[(3-methoxybenzoyl)amino]-phenyl]-5-[2-[(3,4,5-trimethoxyphenyl)amino]-4-amino-5-thiazolyl]-1,2,4-oxadiazole] | 4.7
– | – | – | – | – | – | 41 | 56 | 1.2 | – | 4450 | COc1cc(Nc2nc(N)c(-c3nc(-c4cc(NC(=O)c5cccc(Cl)c5)ccc4F)no3)s2)cc(OC)c1OC [D(73)] | 6
– | – | – | – | – | – | 15 | 25 | 0.26 | – | 9600 | CNC(=O)Nc1nc(N)c(-c2nc(-c3cccc(NC(=O)c4cccc(OC)c4)c3)cs2)s1 [F(11), N-{3-[4′-Amino-2′-(3-methyl-ureido)-[2,5′]bithiazolyl-4-yl]-phenyl}-3-methoxy-benzamide] | 12
– | – | – | – | – | – | 21 | 33 | 0.19 | – | 44000 | Cc1cccc(C(=O)Nc2cccc(-c3noc(-c4sc(NC(=O)NCCCN5CCOCC5)nc4N)n3)c2)c1 [O(12), N-[3-(5-{4-Amino-2-[3-(3-morpholin-4-yl-propyl)-ureido]-thiazol-5-yl}-[1,2,4]oxadiazol-3-yl)-phenyl]-3-methyl-benzamide] | 45
